pIC50: −log10 of the molar value.
Legend:
Type in all cases: cell-based, human
[1] = test system: MDA-MB-231 cell line; assay: MTT cytotoxicity assay, MDA-MB-231 breast cancer cells; conditions: for pIC50: MTT, 48 h incubation; for Selectivity index SI MDA-MB-231: IC50(BJ)/IC50(MDA-MB-231)
Experimental: (§1) Cytotoxicity of tested compounds was evaluated against breast cancer cell lines (MDA-MB-468, MDA-MB-231, MCF-7, and T47D) and normal human fibroblast BJ cell line as a control. All tested cell lines were obtained from the American Type Culture Collection (ATCC, Manassas, VA, USA). MDA-MB-468 and MDA-MB-231 were cultured in F12-K medium (Corning, New York City, NY, USA), MCF-7 and BJ in EMEM medium (Corning, New York City, NY, USA), and T47D in RPMI medium (Corning, New York City, NY, USA). All of these culture media were supplemented with 10% heat-inactivated FBS (PAN-Biotech, Aidenbach, Germany) and antibiotics (100 U/mL of penicillin, 100 μg/mL of streptomycin, and 0.25 μg/mL amphotericin B, respectively; Sigma-Aldrich, St. Louis, MO, USA) in a humidified 5% CO2 atmosphere at 37 °C. The cells were used exclusively for 10 passages.
(§2) The cells were seeded in 96-well plates at a concentration of 5 × 10^4 cells/mL and incubated at 37 °C with 5% CO2 air. When 70–80% culture confluence was achieved the tested compounds were added. […] The cell viability assessment was measured using the MTT assay (Invitrogen, Waltham, MA, USA) based on the ability of living cells to reduce […] tetrazolium salt, by cellular dehydrogenases, to water-insoluble purple formazan crystals. MTT solution (4 mg/mL) was added to the culture after 48 h of incubation with the tested compounds. Following 4 h of incubation, the medium with MTT salt was removed and the obtained crystals were dissolved in DMSO. The solution absorbency was measured at 570 nm using a PowerWave™ microplate spectrophotometer (Bio-Tek Instruments, Winooski, VT, USA). Each experiment was performed twice with measurement in triplicate. The IC50 values were determined using the AAT Bioquest IC50 calculator with a four parameter logistic regression model (AAT Bioquest, Inc. Pleasanton, CA, USA (14 April 2024). Quest Graph™ IC50 Calculator. AAT Bioquest. https://www.aatbio.com/tools/ic50-calculator, accessed on 12 October 2024).

[2] = test system: T47D cell line; assay: MTT cytotoxicity assay, T47D breast cancer cells; conditions: for pIC50: MTT, 48 h incubation; for Selectivity index SI T47D: IC50(BJ)/IC50(T47D)
Experimental: as §1, §2

[3] = test system: MCF-7 cell line; assay: MTT cytotoxicity assay, MCF-7 breast cancer cells; conditions: for pIC50: MTT, 48 h incubation; for Selectivity index SI MCF-7: IC50(BJ)/IC50(MCF-7)
Experimental: as §1, §2

[4] = test system: MDA-MB-468 cell line; assay: MTT cytotoxicity assay, MDA-MB-468 breast cancer cells; conditions: for pIC50: MTT, 48 h incubation; for Selectivity index SI MDA-MB-468: IC50(BJ)/IC50(MDA-MB-468)
Experimental: as §1, §2

Compound | pIC50 ([1]; Homo sapiens, MDA-MB-231) | Selectivity index SI MDA-MB-231 [1] | pIC50 ([2]; Homo sapiens, T47D) | Selectivity index SI T47D [2] | pIC50 ([3]; Homo sapiens, MCF7) | Selectivity index SI MCF-7 [3] | pIC50 ([4]; Homo sapiens, MDA-MB-468) | Selectivity index SI MDA-MB-468 [4] | pIC50 [1] | pIC50 [2] | pIC50 [3] | pIC50 [4]
O=C1C(=CN2CCN(c3cccc(Cl)c3)CC2)SC(=S)N1c1ccccc1 [Compound 14, 5-{[4-(3-Chlorophenyl)piperazin-1-yl]methylidene}-3-phenyl-2-thioxo-1,3-thiazolidin-4-one] | < 3.70 | 1 | < 3.70 | 1 | < 3.70 | 1 | < 3.70 | 1 |  |  |  | 
O=C1NC(=S)SC1=CN1CCN(c2ccc(Cl)c(Cl)c2)CC1 [Compound 10, 5-{[4-(3,4-Dichlorophenyl)piperazin-1-yl]methylidene}-2-thioxo-1,3-thiazolidin-4-one] | 3.98 | 1.90 | 4.04 | 2.2 | 4.51 | 6.45 | 4.26 | 3.63 |  |  |  | 
O=C1NC(=S)SC1=CN1CCN(c2cccc(Cl)c2)CC1 [Compound 7, 5-{[4-(3-Chlorophenyl)piperazin-1-yl]methylidene}-2-thioxo-1,3-thiazolidin-4-one] | 3.80 | 1.27 | < 3.70 | 1 | < 3.70 | 1 | 4.02 | 2.1 |  |  |  | 
O=C1NC(=S)SC1=CN1CCN(C(c2ccc(F)cc2)c2ccc(F)cc2)CC1 [Compound 12, 5-({4-[Bis(4-fluorophenyl)methyl]piperazin-1-yl}methylidene)-2-thioxo-1,3-thiazolidin-4-one] | 3.83 | 1.36 | < 3.70 | 1 | 4.44 | 5.56 | 4.43 | 5.41 |  |  |  | 
O=C1NC(=S)SC1=CN1CCN(c2cccc(F)c2)CC1 [Compound 8, 5-{[4-(3-Fluorophenyl)piperazin-1-yl]methylidene}-2-thioxo-1,3-thiazolidin-4-one] | 3.81 | 1.29 | < 3.70 | 1 | < 3.70 | 1 | < 3.70 | 1 |  |  |  | 
O=C1NC(=S)SC1=CN1CCN(c2ccc(Cl)cc2)CC1 [Compound 5, 5-{[4-(4-Chlorophenyl)piperazin-1-yl]methylidene}-2-thioxo-1,3-thiazolidin-4-one] | < 3.70 | 1 | < 3.70 | 1 | < 3.70 | 1 | 3.77 | 1.19 |  |  |  | 
COc1cccc(N2CCN(C=C3SC(=S)N(c4ccccc4)C3=O)CC2)c1 [Compound 17, 5-{[4-(3-Methoxyphenyl)piperazin-1-yl]methylidene}-3-phenyl-2-thioxo-1,3-thiazolidin-4-one] | 3.93 | 1.69 | < 3.70 | 1 | 3.77 | 1.18 | 4.24 | 3.45 |  |  |  | 
O=C1NC(=S)SC1=CN1CCN(c2ccc([N+](=O)[O-])cc2)CC1 [Compound 6, 5-{[4-(4-Nitrophenyl)piperazin-1-yl]methylidene}-2-thioxo-1,3-thiazolidin-4-one] | 4.04 | 2.17 | 3.73 | 1.08 | < 3.70 | 1 | 4.27 | 3.7 |  |  |  | 
O=C1C(=CN2CCN(C(c3ccc(F)cc3)c3ccc(F)cc3)CC2)SC(=S)N1c1ccccc1 [Compound 15, 5-({4-[Bis(4-fluorophenyl)methyl]piperazin-1-yl}methylidene)-3-phenyl-2-thioxo-1,3-thiazolidin-4-one] | 4.12 | 2.63 | 3.72 | 1.06 | 4.35 | 4.44 | 4.33 | 4.26 |  |  |  | 
O=C1C(=CN2CCN(c3ccc(Cl)cc3)CC2)SC(=S)N1c1ccccc1 [Compound 13, 5-{[4-(4-Chlorophenyl)piperazin-1-yl]methylidene}-3-phenyl-2-thioxo-1,3-thiazolidin-4-one] | 3.84 | 1.38 | < 3.70 | 1 | 4.17 | 2.99 | 3.75 | 1.12 |  |  |  | 
COc1cccc(N2CCN(C=C3SC(=S)NC3=O)CC2)c1 [Compound 11, 5-{[4-(3-Methoxyphenyl)piperazin-1-yl]methylidene}-2-thioxo-1,3-thiazolidin-4-one] | 3.80 | 1.25 | < 3.70 | 1 | < 3.70 | 1 | 4.04 | 2.17 |  |  |  | 
5-{[4-(3-Fluoromethylphenyl)piperazin-1-yl]methylidene}-2-thioxo-1,3-thiazolidin-4-one [Compound 9] |  | 1 |  | 1 |  | 2.74 |  | 3.17 | < 3.70 | < 3.70 | 4.14 | 4.20
O=C1C(=CN2CCN(c3cccc(F)c3)CC2)SC(=S)N1c1ccccc1 [Compound 16, 5-{[4-(3-Fluorophenyl)piperazin-1-yl]methylidene}-3-phenyl-2-thioxo-1,3-thiazolidin-4-one] | 3.75 | 1.12 | < 3.70 | 1 | < 3.70 | 1 | < 3.70 | 1 |  |  |  | 

Reference: paper PMC11594716, “Rhodanine–Piperazine Hybrids as Potential VEGFR, EGFR, and HER2 Targeting Anti-Breast Cancer Agents” (International Journal of Molecular Sciences, 2024)
